This note sets out measurements from US10196393B2, “JAK inhibitors containing a 4-membered heterocyclic amide” (THERAVANCE BIOPHARMA R&D IP, LLC, priority 2017, dated 2019).

The test system of assay [1] is IL-4 stimulated STAT6 phosphorylation in CD3+ T cells. The assay is described as follows: Cellular JAK potency assay: inhibition of IL-4 stimulated pSTAT6 in CD3+ T cells. The format is cell-based. As to conditions: T-cell; CD3+ T cells in human PBMCs; read-out: pIC50, inhibition of IL-4 stimulated pSTAT6 (converted). As to the method:
Assay 10: Cellular JAK Potency Assay: Inhibition of IL-4 Stimulated pSTAT6 in CD3+ T Cells
The potency of the test compound for inhibition of interleukin-4 (IL-4) stimulated STAT6 phosphorylation was measured in CD3-positive (CD3+) T cells in human peripheral blood mononuclear cells (PBMCs) isolated from human whole blood (Stanford Blood Center) using flow cytometry. Because IL-4 signals through JAK, this assay provides a measure of JAK cellular potency.
CD3+ T cells were identified using a […] (PE) conjugated anti-CD3 antibody (Clone UCHT1, BD Biosciences), while an Alexa Fluor 647 conjugated anti-pSTAT6 antibody (pY641, Clone 18/P, BD Biosciences) was used to detect STAT6 phosphorylation.
Human peripheral blood mononuclear cells (PBMC) were isolated from human whole blood of healthy donors as in Assays 8 and 9. […] After incubation, cells were washed twice in FACS buffer before being analyzed using a LSRII flow cytometer (BD Biosciences).
To determine the inhibitory potency of the test compound in response to IL-4, the median fluorescent intensity (MFI) of pSTAT6 was measured in CD3+ T cells. IC50 values were determined from analysis of the inhibition curves of MFI vs compound concentration. Data are expressed as pIC50 (negative decadic logarithm IC50).

Assay [2] concerns IL-13 induced pSTAT6 induction in lung tissue. The assay is described as follows: Murine model of IL-13 induced pSTAT6 induction in lung tissue. Type of assay: in vivo. The note with it: mouse lung, 1 mg/mL 50 μL oral aspiration, IL-13 challenge 4 h after dose, lungs at 5 hours. An excerpt: Assay 4: Murine (Mouse) Model of IL-13 Induced pSTAT6 Induction in Lung Tissue
Il-13 is an important cytokine underlying the pathophysiology of asthma (Kudlacz et al. Eur. J. Pharmacol, 2008, 582,154-161). IL-13 binds to cell surface receptors activating members of the Janus family of kinases (JAK) which then phosphorylate STAT6 and subsequently activates further transcription pathways. In the described model, a dose of IL-13 was delivered locally into the lungs of mice to induce the phosphorylation of STAT6 (pSTAT6) which is then measured as the endpoint.
Adult balb/c mice from Harlan were used in the assay. On the day of study, animals were lightly anesthetized with isoflurane and administered either vehicle or test compound (1 mg/mL, 50 μL total volume over several breaths) via oral aspiration. Animals were placed in lateral recumbency post dose and monitored for full recovery from anesthesia before being returned to their home cage. Four hours later, animals were once again briefly anesthetized and challenged with either vehicle or IL-13 (0.03 μg total dose delivered, 50 μL total volume) via oral aspiration before being monitored for recovery from anesthesia and returned to their home cage. One hour after vehicle or IL-13 administration, lungs were collected for both pSTAT6 detection using an anti-pSTAT6 ELISA (rabbit mAb capture/coating antibody; mouse mAb detection/report antibody: anti-pSTAT6-pY641; secondary antibody: anti-mouse IgG-HRP) and analyzed for total drug concentration as described above in Assay 3.
Selected compounds of the invention were tested in the assay. Activity in the model is evidenced by a decrease in the level of pSTAT6 present in the lungs of treated animals at 5 hours compared to the vehicle treated, IL-13 challenged control animals. The difference between the control animals which were vehicle-treated, IL-13 challenged and the control animals which were vehicle-treated, vehicle challenged dictated the 0% and 100% inhibitory effect, respectively, in any given experiment.

For assay [3], the target named is JAK1 (Homo sapiens (Human), UniProt P23458). The assay is described as follows: Biochemical JAK kinase assay (LanthaScreen), JAK1. As to conditions: converted from pIC50 with Cheng-Prusoff equation. The method, then:
Assay 1: Biochemical JAK Kinase Assays
A panel of four LanthaScreen JAK biochemical assays (JAK1, 2, 3 and Tyk2) were carried in a common kinase reaction buffer (50 mM HEPES, pH 7.5, 0.01% Brij-35, 10 mM MgCl2, and 1 mM EGTA). Recombinant GST-tagged JAK enzymes and a GFP-tagged STAT1 peptide substrate were obtained from Life Technologies.
Serially diluted compounds were pre-incubated with each of the four JAK enzymes and the substrate in white 384-well microplates (Corning) at ambient temperature for 1 h. ATP was subsequently added to initiate the kinase reactions in 10 μL total volume, with 1% DMSO. […] The plates were allowed to incubate at ambient temperature for 1 h before being read on the EnVision reader (Perkin Elmer).
For dose-response analysis, percent inhibition data were plotted vs. compound concentrations, and IC50 values were determined from a 4-parameter robust fit model with the Prism software (GraphPad Software). Results were expressed as pIC50 (negative logarithm of IC50) and subsequently converted to pKi (negative logarithm of dissociation constant, Ki) using the Cheng-Prusoff equation.
In general terms: TR-FRET usually uses a lanthanide donor and a delayed reading to cut background.

JAK1, sequence (P23458 whole entry): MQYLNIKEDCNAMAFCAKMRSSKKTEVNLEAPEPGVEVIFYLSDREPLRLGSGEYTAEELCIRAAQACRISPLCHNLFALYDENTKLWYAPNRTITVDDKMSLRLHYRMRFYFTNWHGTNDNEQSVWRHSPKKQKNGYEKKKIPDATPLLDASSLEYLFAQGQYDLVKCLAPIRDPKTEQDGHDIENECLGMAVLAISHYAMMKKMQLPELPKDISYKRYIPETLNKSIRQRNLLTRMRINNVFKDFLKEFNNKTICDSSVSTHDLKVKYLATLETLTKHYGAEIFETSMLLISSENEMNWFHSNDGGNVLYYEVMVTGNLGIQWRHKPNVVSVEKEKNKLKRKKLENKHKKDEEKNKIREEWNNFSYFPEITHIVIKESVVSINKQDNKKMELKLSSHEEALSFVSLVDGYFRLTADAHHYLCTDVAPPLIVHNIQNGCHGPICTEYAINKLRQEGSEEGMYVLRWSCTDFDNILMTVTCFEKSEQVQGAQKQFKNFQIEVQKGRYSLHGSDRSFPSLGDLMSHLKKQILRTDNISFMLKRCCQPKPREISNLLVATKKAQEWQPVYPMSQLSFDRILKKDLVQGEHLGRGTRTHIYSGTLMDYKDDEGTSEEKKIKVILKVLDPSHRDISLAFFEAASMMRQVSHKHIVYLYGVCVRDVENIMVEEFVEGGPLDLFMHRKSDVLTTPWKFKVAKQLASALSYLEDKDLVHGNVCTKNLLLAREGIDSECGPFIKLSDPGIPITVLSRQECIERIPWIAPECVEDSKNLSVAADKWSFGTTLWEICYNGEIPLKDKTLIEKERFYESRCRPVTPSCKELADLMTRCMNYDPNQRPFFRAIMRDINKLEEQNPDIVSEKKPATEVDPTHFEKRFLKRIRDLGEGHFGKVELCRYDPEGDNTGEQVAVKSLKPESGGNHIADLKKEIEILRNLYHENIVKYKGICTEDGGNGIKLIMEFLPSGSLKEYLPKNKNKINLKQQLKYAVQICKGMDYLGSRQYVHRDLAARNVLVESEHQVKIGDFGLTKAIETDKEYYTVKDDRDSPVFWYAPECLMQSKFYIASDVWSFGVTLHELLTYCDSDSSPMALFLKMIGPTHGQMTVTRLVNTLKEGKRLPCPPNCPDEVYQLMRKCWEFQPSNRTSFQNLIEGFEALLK

On to `CCc1cc(O)c(F)cc1-c1ccc2c(-c3nc4c([nH]3)CN(C(C)C)[C@H](C(=O)N3CC(N(C)C)C3)C4)n[nH]c2c1` [Example 2, (S)-(3-(dimethylamino)azetidin-1-yl)(2-(6-(2-ethyl-5-fluoro-4-hydroxyphenyl)-1H-indazol-3-yl)-5-isopropyl-4,5,6,7-tetrahydro-3H-imidazo[4,5-c]pyridin-6-yl)methanone], for which, in assay [1], the IC50 is 12.6 nM. The “pSTAT6 inhibition Assay 4” value in assay [2] was “B (B represents between 40% and 60% inhibition)”. In assay [3], this molecule displayed a Ki of 0.04 nM.

One may read the Ki as the dissociation constant of the complex between target and ligand, obtained from inhibition or displacement. A high value points to weaker binding.
